According to patent publication US20230263710A1, “ORAL CARE AGENT” (OSAKA UNIVERSITY, priority 2020, published 2023):
Where two headings read alike, the source gives them in different places.

Test: Lewis acidity measuring method (1): reaction rate constant of reaction between CoTPP and oxygen in the presence of a Lewis acid
Format: physicochemical

| Compound | kcat (reaction rate constant of reaction between CoTPP and oxygen in the presence of a Lewis acid) [M^−2 s^−1] | kcat (reaction rate constant of reaction between CoTPP and oxygen in the presence of a Lewis acid) (acetonitrile, saturated O2, room temperature) [M^−2 s^−1] |
| --- | --- | --- |
| benzethonium chloride | 0.24 | – |
| benzalkonium chloride | – | 0.18 |
| CCCC[N+](CCCC)(CCCC)CCCC.F[P-](F)(F)(F)(F)F [tetrabutylammonium hexafluorophosphate] | >0.1 | – |
